These results are taken from PubChem BioAssay (NCI).

SMILES strings stand for the structures.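 Where inhibition never reached the appropriate level, the endpoint shown equals the highest concentration tested. Otherwise, values were interpolated linearly from a five-concentration, 48-hour dose response in 96-well plates. TGI: total growth inhibition.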

Among the test systems are A549 NSCLC; DU-145 prostate; HS 578T breast; KM12 colon; LOX IMVI melanoma; M14 melanoma; MCF7 breast; NCI-H460 lung; SK-OV-3 ovarian; U251 CNS.
Assay in all cases: growth of human tumour cells (NCI), 48 h

As for `COC(=O)c1ccccc1CC1Cc2ccc3c(c2C1=O)CCCC3` (stereo not given), the TGI was above 100 µM in the assay on A549 NSCLC; above 100 µM in the assay with DU-145 prostate; above 100 µM with HS 578T breast; above 100 µM in the assay on KM12 colon; above 87 µM in the assay with LOX IMVI melanoma; above 100 µM in the assay on M14 melanoma. For the same molecule, the TGI in the assay with MCF7 breast, in the assay with NCI-H460 lung, with SK-OV-3 ovarian and in the assay with U251 CNS was above 100 µM throughout.

`CCOC(=O)CSc1c(C(=O)OCC)c(=O)n(-c2ccccc2)c(=S)n1-c1ccccc1`: the TGI in the assay on A549 NSCLC, in the assay on DU-145 prostate, in the assay with HS 578T breast, with KM12 colon, with LOX IMVI melanoma and with M14 melanoma was above 100 µM in each case. For the same molecule, the TGI in the assay with MCF7 breast, in the assay with NCI-H460 lung, with SK-OV-3 ovarian and in the assay with U251 CNS was above 100 µM throughout.

In the case of `CCOC(=O)C1(C/C=C/CBr)Cc2ccccc2C1=O` (stereo not given), the TGI in the assay with A549 NSCLC was above 35.7 µM; in the assay with DU-145 prostate, 28.3 µM; with HS 578T breast, 24.4 µM; with KM12 colon, 10.8 µM; in the assay on LOX IMVI melanoma, 3.23 µM; in the assay with M14 melanoma, 11.6 µM. Besides, the TGI worked out at 8.73 µM in the assay on MCF7 breast, 4.21 µM with NCI-H460 lung, 21.5 µM in the assay with SK-OV-3 ovarian and 14.8 µM in the assay on U251 CNS.

For `COC(=O)C1SC(SC)=NC12c1ccccc1Nc1ccccc12` (stereo not given), the TGI in the assay on A549 NSCLC is above 100 µM; with DU-145 prostate it was above 100 µM; in the assay on HS 578T breast, above 100 µM; with KM12 colon it was above 100 µM; in the assay on LOX IMVI melanoma it was 32.2 µM; in the assay with M14 melanoma it was 40.1 µM. Also, the TGI in the assay with MCF7 breast is 82.7 µM; with NCI-H460 lung, 56.1 µM; in the assay on SK-OV-3 ovarian it was above 100 µM; with U251 CNS, 66.6 µM.

Turning to `Cc1ccc(Cl)c2[nH]c(-c3ccccc3)cc(=O)c12`, the TGI in the assay on A549 NSCLC was 72 µM; with DU-145 prostate, above 100 µM; with HS 578T breast it was above 100 µM; with KM12 colon it was above 100 µM; in the assay with LOX IMVI melanoma, above 100 µM; with M14 melanoma it was above 100 µM. The TGI in the assay with MCF7 breast is 34.6 µM; in the assay with NCI-H460 lung it was above 100 µM; in the assay with SK-OV-3 ovarian, above 100 µM; in the assay on U251 CNS, above 100 µM.

Regarding `CC1(C)OC(=O)N(c2ccccc2)C12C=Cc1cc([N+](=O)[O-])cc([N+](=O)[O-])c1O2` (stereo not given), the TGI in the assay on A549 NSCLC, with DU-145 prostate, with HS 578T breast, in the assay with KM12 colon, with LOX IMVI melanoma and with M14 melanoma was above 100 µM throughout. Also, the TGI in the assay with MCF7 breast, with NCI-H460 lung, in the assay on SK-OV-3 ovarian and in the assay on U251 CNS was above 100 µM in each case.

`O=c1c2cc([N+](=O)[O-])cnc2sn1-c1ccc([N+](=O)[O-])cc1`: the TGI with A549 NSCLC is above 100 µM; in the assay with DU-145 prostate, above 100 µM; in the assay with HS 578T breast, 90 µM; with KM12 colon, 62.4 µM; in the assay with LOX IMVI melanoma it was 49.4 µM; in the assay on M14 melanoma it was above 100 µM. In addition, the TGI in the assay on MCF7 breast, in the assay with NCI-H460 lung, in the assay with SK-OV-3 ovarian and with U251 CNS was above 100 µM in each case.

On to `O=c1[nH]c(Nc2cccc(CC(F)(F)F)c2)nc2nc[nH]c12`, for which the TGI in the assay on A549 NSCLC, in the assay with DU-145 prostate, in the assay on HS 578T breast, in the assay on KM12 colon, with LOX IMVI melanoma and in the assay with M14 melanoma was above 100 µM in each case. In addition, the TGI in the assay with MCF7 breast, in the assay with NCI-H460 lung, with SK-OV-3 ovarian and with U251 CNS was above 100 µM each time.

Turning to `Cc1ccc(C(=O)O)cc1S(=O)(=O)Nn1cnc2ccc(S(=O)(=O)Nc3ccccc3C(=O)O)cc2c1=O`, the TGI in the assay with A549 NSCLC, with DU-145 prostate, in the assay on HS 578T breast, with KM12 colon, in the assay with LOX IMVI melanoma and in the assay with M14 melanoma was above 100 µM each time. The TGI with MCF7 breast, in the assay on NCI-H460 lung, in the assay on SK-OV-3 ovarian and with U251 CNS was above 100 µM each time.

With `S=C1Nc2ccccc2SC1c1ccccc1` (stereo not given), the TGI is above 100 µM with A549 NSCLC; above 100 µM in the assay with DU-145 prostate; 83.2 µM in the assay with HS 578T breast; above 100 µM in the assay on KM12 colon; above 100 µM with LOX IMVI melanoma; above 100 µM in the assay with M14 melanoma. The TGI in the assay with MCF7 breast, with NCI-H460 lung, in the assay with SK-OV-3 ovarian and in the assay on U251 CNS was above 100 µM each time.

Turning to `CCCCCCCCCCCCCCNC(=O)CCC(NC(=O)c1ccc(N(C)Cc2cnc3nc(N)nc(N)c3n2)cc1)C(=O)NCCCCCCCCCCCCCC` (stereo not given), the TGI is above 36.3 µM in the assay with A549 NSCLC; above 100 µM with DU-145 prostate; 29.1 µM in the assay on HS 578T breast; 18 µM in the assay with KM12 colon; above 100 µM with LOX IMVI melanoma; above 40.4 µM in the assay with M14 melanoma. Also, the TGI came out at 29.2 µM in the assay on MCF7 breast, 13.1 µM in the assay with NCI-H460 lung, 28.3 µM in the assay on SK-OV-3 ovarian and 32.6 µM with U251 CNS.

For `COC(=O)C([C@H](NC1(c2ccccc2)c2ccccc2-c2ccccc21)C(=O)OC)N(NC(=O)OCc1ccccc1)C(=O)OCc1ccccc1` (mixture of isomers), the TGI in the assay on A549 NSCLC, in the assay with DU-145 prostate, with HS 578T breast, in the assay on KM12 colon, in the assay on LOX IMVI melanoma and in the assay on M14 melanoma was above 100 µM in each case. In addition, the TGI in the assay with MCF7 breast, in the assay on NCI-H460 lung, in the assay with SK-OV-3 ovarian and in the assay with U251 CNS was above 100 µM each time.
